Test results as given in patent publication US11746097B2, “LXR inverse agonists for treatment of cancer” (Saint Louis University, priority 2016, dated 2023).

Assays:
human LXRα-LBD = biological target: T1, human LXRα-LBD (Homo sapiens, UniProt Q13133); assay: Lantha Screen TR-FRET NR-cofactor peptide interaction assay; assay type: biochemical
T1 construct: Purified human LXRα-LBD (GST); purchased Life Technologies
T1 sequence (Q13133 209-447 limits assumed): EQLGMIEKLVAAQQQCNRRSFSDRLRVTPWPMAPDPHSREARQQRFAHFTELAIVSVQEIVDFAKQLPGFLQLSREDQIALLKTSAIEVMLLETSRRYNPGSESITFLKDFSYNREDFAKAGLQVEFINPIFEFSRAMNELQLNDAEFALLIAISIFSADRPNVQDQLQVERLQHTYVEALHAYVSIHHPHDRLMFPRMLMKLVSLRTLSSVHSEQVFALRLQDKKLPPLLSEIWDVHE
Experimental: Biochemical NR—Cofactor Peptide Interaction Assay (TR-FRET) Assay (Life Technologies kit). Purified human LXRα-LBD (GST), LXRβ-LBD (GST), fluoroscein (FL)-labeled peptides, terbium (TB)-labeled anti-GST tag antibody, and all buffers were purchased from Life Technologies. All LXR assays were conducted in 384-well black medium-binding polystyrene assay plates (Greiner Bio-One). Test compound stock solutions and subsequent serial dilutions were prepared at 100× the final concentration in DMSO, and then were diluted to the final assay concentration of 2× in assay buffer and dispensed into assay plates. LXR-LBDs were added to assay plates and then a mixture of FL-peptide/TB-anti-GST was added to each well containing either a test compound or DMSO control for final concentrations of 2.5 nM LXRα-LBD, 5 nM LXRβ-LBD, 10 nM TB-anti-GST, and 250 nM FL-peptide. Assay plates were protected from light and incubated with gentle shaking for 3.5 hours at room temperature. The TR-FRET ratio (520 nm/492 nm) of each assay well was measured using the Perkin Elmer EnVision plate reader. An excitation filter at 340 nm was used to excite the TB-anti-GST and emission filters 492 nm and 520 nm were used to detect terbium and fluorescein emission signals respectively. A delay of 100 μs followed by a 200 μs integration time was used to collect the time-resolved emission signals.
The assay is identical except we use His-tagged LXR (made in house) and TB-labeled anti-His antibody (Life Technologies). FL-labeled peptides (Life Technologies) are: • NCOR-ID1 NCOR-ID2 SMRT SRC1-2 SRC2-3 TRAP/DRIP

dendritic cell = assay: Cultured dendritic cell chemokine expression (FIG. 1A); assay type: cell-based; details: cultured dendritic cells
[1] = test system: lung and breast tumor bearing mice; assay: Tumor specific immune response in tumor bearing mice (FIG. 1B); assay type: in vivo

SMILES | IC50 (human LXRα-LBD) [µM] | further results
COC(=O)C1Cc2cc(-c3cccc(S(C)(=O)=O)c3)ccc2CN1S(=O)(=O)c1c(C)cc(C)cc1C (stereo not shown) [Compound 3, methyl 2-(mesitylsulfonyl)-6-(3-(methylsulfonyl)phenyl)-1,2,3,4-tetrahydroisoquinoline-3-carboxylate] | 5 | 
Cc1cc(C)c(S(=O)(=O)N2Cc3ccc(-c4cccc(S(C)(=O)=O)c4)cc3CC2C(=O)NCc2ccc(C#N)cc2)c(C)c1 (stereo not shown) [Compound 5, N-(4-cyanobenzyl)-2-(mesitylsulfonyl)-6-(3-(methylsulfonyl)phenyl)-1,2,3,4 tetrahydroisoquinoline-3-carboxamide] | 8.3 | 
Cc1cc(C)c(S(=O)(=O)N2Cc3ccc(-c4cccc(S(C)(=O)=O)c4)cc3CC2C(=O)NCc2cccc(C#N)c2)c(C)c1 (stereo not shown) [Compound 12] | 0.02 | 
Cc1cc(C)c(S(=O)(=O)N2Cc3ccc(-c4cccc(S(C)(=O)=O)c4)cc3CC2C(=O)NCCc2cccc(C#N)c2)c(C)c1 (stereo not shown) [Compound 14] | 2.1 | 
Cc1cc(C)c(S(=O)(=O)N2Cc3ccccc3CC2C(=O)NCCc2cccc(C#N)c2)c(C)c1 (stereo not shown) [Compound 38] | 0.661 | 
COc1ccc(-c2ccc3nc(NS(=O)(=O)c4c(C)cc(C)cc4C)ccc3c2)cc1 [Compound 104] | 4.3 | 
O=C(Nc1ccc2cc(Br)ccc2n1)c1cccc(Cl)c1 [Compound 113] | 5.2 | 
Cc1cc(C)c(S(=O)(=O)N(CCc2cccc(Br)c2)Cc2ccc(-c3cccc(S(C)(=O)=O)c3)cc2)c(C)c1 [SR9243] |  | inhibition of dendritic cell chemokine expression by LXR agonists and tumor specific LXR ligands (dendritic cell): disrupted; cytotoxic T-cell activity [1]: induces; dendritic cell activity [1]: induces
